In ChEMBL document CHEMBL3400099, “Novel thiazole-thiophene conjugates as adenosine receptor antagonists: synthesis, biological evaluation and docking studies” (Bioorg Med Chem Lett, 2015):

Key:
Adenosine receptor A1 = target: T1, Adenosine receptor A1 (Homo sapiens, UniProt P30542); test: Displacement of [3H]CCPA from human adenosine A1 receptor expressed in CHO cells; format: cell-based
T1 sequence (P30542 whole entry): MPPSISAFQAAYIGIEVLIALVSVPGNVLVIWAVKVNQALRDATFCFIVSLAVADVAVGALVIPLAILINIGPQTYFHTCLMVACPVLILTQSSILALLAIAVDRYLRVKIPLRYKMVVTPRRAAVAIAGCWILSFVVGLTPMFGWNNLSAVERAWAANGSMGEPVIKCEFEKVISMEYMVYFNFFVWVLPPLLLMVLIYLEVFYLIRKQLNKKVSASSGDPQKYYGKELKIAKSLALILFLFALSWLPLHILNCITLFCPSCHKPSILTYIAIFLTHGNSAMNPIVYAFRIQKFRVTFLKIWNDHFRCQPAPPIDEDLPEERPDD

Adenosine receptor A2a = Adenosine receptor A2a (Homo sapiens, UniProt P29274); test: Displacement of [3H]NECA from human adenosine A2A receptor expressed in CHO cells; format: cell-based
Chain of Adenosine receptor A2a (P29274 whole entry): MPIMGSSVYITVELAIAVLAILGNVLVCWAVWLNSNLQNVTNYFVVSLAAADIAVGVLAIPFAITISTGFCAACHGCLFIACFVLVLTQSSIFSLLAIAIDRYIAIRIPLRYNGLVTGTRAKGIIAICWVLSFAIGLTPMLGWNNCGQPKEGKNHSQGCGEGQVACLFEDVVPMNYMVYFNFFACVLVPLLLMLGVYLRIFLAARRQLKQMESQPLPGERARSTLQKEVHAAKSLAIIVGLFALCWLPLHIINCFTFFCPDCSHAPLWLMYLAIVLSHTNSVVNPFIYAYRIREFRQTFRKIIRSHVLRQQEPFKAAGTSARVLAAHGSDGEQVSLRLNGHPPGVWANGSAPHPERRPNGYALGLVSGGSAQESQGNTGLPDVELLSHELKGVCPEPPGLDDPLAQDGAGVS

Adenosine receptor A3 = target: T2, Adenosine receptor A3 (Homo sapiens, UniProt P0DMS8); test: Displacement of [3H]HEMADO from human adenosine A3 receptor expressed in CHO cells; format: cell-based
T2 sequence (P0DMS8 whole entry): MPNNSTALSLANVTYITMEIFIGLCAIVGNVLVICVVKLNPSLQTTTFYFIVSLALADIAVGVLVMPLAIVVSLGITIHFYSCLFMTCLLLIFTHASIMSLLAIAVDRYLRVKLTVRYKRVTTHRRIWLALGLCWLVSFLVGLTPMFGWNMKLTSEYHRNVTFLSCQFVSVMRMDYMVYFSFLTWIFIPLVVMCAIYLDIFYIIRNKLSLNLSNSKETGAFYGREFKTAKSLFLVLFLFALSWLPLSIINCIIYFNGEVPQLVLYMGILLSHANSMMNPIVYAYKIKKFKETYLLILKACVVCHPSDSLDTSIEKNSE

Homo sapiens = species on record: Homo sapiens; test: Selectivity ratio of Ki for human adenosine A2A receptor to Ki for human adenosine A3 receptor
[1] = target: Adenosine receptors; A1 & A3 (Homo sapiens) (UniProt P30542+P0DMS8); test: Selectivity ratio of Ki for human adenosine A1 receptor to Ki for human adenosine A3 receptor

| Ki (Adenosine receptor A1) [µM] | Ki (Adenosine receptor A2a) [µM] | Ki (Adenosine receptor A3) [µM] | Selectivity ratio (Homo sapiens) | Selectivity ratio [1] | Compound |
| --- | --- | --- | --- | --- | --- |
| > 10 | > 10 | > 10 | – | – | Cc1ccc(Nc2nc(-c3ccc(C)cc3)c(C(=O)Nc3sc4c(c3C#N)CCCC4)s2)cc1 |
| > 30 | 5.67 | 3.87 | 1.5 | > 7.8 | Cc1ccc(Nc2nc(C)c(C(=O)Nc3sc4c(c3C#N)CCCC4)s2)cc1 |
| > 100 | > 10 | 34 | > 0.29 | > 2.9 | Cc1ccc(Nc2nc(N(C)C)c(C(=O)Nc3sc4c(c3C#N)CCCC4)s2)cc1 |
| 23.5 | 18 | 4.71 | 3.8 | 5 | CCOC(=O)c1c(NC(=O)c2sc(Nc3ccc(C)cc3)nc2N(C)C)sc2c1CCCC2 |
| > 30 | > 30 | 9.56 | > 3.1 | > 3.1 | COc1ccc(Nc2nc(-c3ccc(C)cc3)c(C(=O)Nc3sc4c(c3C#N)CCCC4)s2)cc1 |
| > 30 | > 30 | > 30 | 0.33 | – | CCOC(=O)c1c(NC(=O)c2sc(Nc3ccc(C)cc3)nc2C)sc(C(=O)OC)c1C |
| 19 | 26.6 | 3.91 | 6.8 | 4.9 | CCOC(=O)c1c(NC(=O)c2sc(Nc3ccc(C)cc3)nc2N(C)C)sc(C(=O)OC)c1C |
| 40.8 | 6.45 | 4.12 | 1.6 | 9.9 | CCOC(=O)c1c(NC(=O)c2sc(Nc3ccccc3)nc2N(C)C)sc2c1CCCC2 |
| > 100 | > 100 | > 30 | > 3.3 | > 3.3 | CCOC(=O)c1c(NC(=O)c2sc(NC(=O)OC)nc2N(C)C)sc2c1CCCC2 |
| > 30 | > 30 | 35.6 | > 0.84 | > 0.84 | CN(C)c1nc(Nc2ccccc2)sc1C(=O)Nc1sc2c(c1C#N)CCCC2 |
| > 30 | > 10 | 0.33 | > 30 | > 90 | Cc1ccc(Nc2nc(-c3ccc(C)cc3)c(C(=O)Nc3sc4c(c3C(N)=O)CCCC4)s2)cc1 |
| 32.4 | 22.3 | 7.13 | 3.1 | 4.5 | Cc1ccc(Nc2nc(N(C)C)c(C(=O)Nc3sc4c(c3C(N)=O)CCCC4)s2)cc1 |
| 2.38 | 3.44 | 0.334 | 10 | 7.1 | Cc1ccc(-c2nc(Nc3ccccc3)sc2C(=O)Nc2sc3c(c2C(N)=O)CCCC3)cc1 |
| 14 | 9.66 | 2.73 | 3.5 | 5.1 | CCOC(=O)c1c(NC(=O)c2sc(Nc3ccc(OC)cc3)nc2N(C)C)sc(C(=O)OC)c1C |
| 7.75 | 28.4 | 4.09 | 6.9 | 1.9 | CCOC(=O)c1c(NC(=O)c2sc(Nc3ccccc3)nc2-c2ccc(C)cc2)sc2c1CCCC2 |
| > 10 | > 10 | 0.52 | > 19 | > 19 | CCOC(=O)c1c(NC(=O)c2sc(Nc3ccc(OC)cc3)nc2-c2ccc(C)cc2)sc2c1CCCC2 |
| > 30 | > 30 | 8.22 | > 3.7 | > 3.7 | CCOC(=O)c1c(NC(=O)c2sc(Nc3ccc(C)cc3)nc2C)sc2c1CCCC2 |
| > 30 | > 30 | 2.16 | > 14 | > 14 | CCOC(=O)c1c(NC(=O)c2sc(Nc3ccc(C)cc3)nc2-c2ccc(C)cc2)sc2c1CCCC2 |
